#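 96-well plates; 48 h exposure; 5 concentrations. Endpoints by linear interpolation between flanking doses. Not reached: highest tested concentration assigned. GI50 marks 50% less growth. The concentration for full growth arrest is given as TGI.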
# Key:
# Assay in all cases: inhibition of tumour cell growth, NCI panel, 48 h
# NCI-H460 lung = test system: NCI-H460 lung
# HOP-62 NSCLC = test system: HOP-62 NSCLC
# SW-620 colon = test system: SW-620 colon
# HCT-15 colon = test system: HCT-15 colon
# SNB-75 CNS = test system: SNB-75 CNS
# HT29 colon = test system: HT29 colon
# EKVX NSCLC = test system: EKVX NSCLC
# M14 melanoma = test system: M14 melanoma
# MDA-MB-231 breast = test system: MDA-MB-231 breast
# K-562 leukemia = test system: K-562 leukemia
# 786-0 renal = test system: 786-0 renal
# SK-MEL-5 melanoma = test system: SK-MEL-5 melanoma
# SK-MEL-28 melanoma = test system: SK-MEL-28 melanoma
# MCF7 breast = test system: MCF7 breast
# UO-31 renal = test system: UO-31 renal
# A498 renal = test system: A498 renal
# CCRF-CEM leukemia = test system: CCRF-CEM leukemia
# MDA-MB-468 breast = test system: MDA-MB-468 breast
# COLO 205 colon = test system: COLO 205 colon
# IGROV1 ovarian = test system: IGROV1 ovarian
# PC-3 prostate = test system: PC-3 prostate
# NCI-H226 lung = test system: NCI-H226 lung
# SK-MEL-2 melanoma = test system: SK-MEL-2 melanoma
# U251 CNS = test system: U251 CNS
# SN12C renal = test system: SN12C renal
# OVCAR-8 ovarian = test system: OVCAR-8 ovarian
# LOX IMVI melanoma = test system: LOX IMVI melanoma
# HCT-116 colon = test system: HCT-116 colon
# OVCAR-3 ovarian = test system: OVCAR-3 ovarian
# MDA-MB-435 = test system: MDA-MB-435
# ACHN renal = test system: ACHN renal
# SF-295 CNS = test system: SF-295 CNS
# DU-145 prostate = test system: DU-145 prostate
# SR leukemia = test system: SR leukemia
# T-47D breast = test system: T-47D breast
# OVCAR-4 ovarian = test system: OVCAR-4 ovarian
# TK-10 renal = test system: TK-10 renal
# CAKI-1 renal = test system: CAKI-1 renal
# HL-60(TB) leukemia = test system: HL-60(TB) leukemia
# SK-OV-3 ovarian = test system: SK-OV-3 ovarian
# NCI-H522 lung = test system: NCI-H522 lung
# NCI-H23 lung = test system: NCI-H23 lung
# BT-549 breast = test system: BT-549 breast
# MOLT-4 leukemia = test system: MOLT-4 leukemia
# SF-268 CNS = test system: SF-268 CNS
# SF-539 CNS = test system: SF-539 CNS
# UACC-257 melanoma = test system: UACC-257 melanoma
# RXF 393 renal = test system: RXF 393 renal
# HOP-92 NSCLC = test system: HOP-92 NSCLC
# A549 NSCLC = test system: A549 NSCLC
# KM12 colon = test system: KM12 colon
# HS 578T breast = test system: HS 578T breast
# HCC-2998 colon = test system: HCC-2998 colon
# OVCAR-5 ovarian = test system: OVCAR-5 ovarian
# RPMI-8226 leukemia = test system: RPMI-8226 leukemia
# UACC-62 melanoma = test system: UACC-62 melanoma
# MALME-3M melanoma = test system: MALME-3M melanoma
# SNB-19 CNS = test system: SNB-19 CNS
smiles,measurement,setting,value
C[C@H](Nc1nc(NCCc2ccccc2)nc2ccccc12)c1ccccc1,GI50,NCI-H460 lung,1.35 µM
same,TGI,NCI-H460 lung,2.83 µM
same,GI50,HOP-62 NSCLC,1.52 µM
same,TGI,HOP-62 NSCLC,2.93 µM
same,GI50,SW-620 colon,1.4 µM
same,TGI,SW-620 colon,2.88 µM
same,GI50,HCT-15 colon,1.42 µM
same,TGI,HCT-15 colon,2.9 µM
same,GI50,SNB-75 CNS,0.563 µM
same,TGI,SNB-75 CNS,3.49 µM
same,GI50,HT29 colon,1.26 µM
same,TGI,HT29 colon,2.96 µM
same,GI50,EKVX NSCLC,1.42 µM
same,TGI,EKVX NSCLC,3.21 µM
same,GI50,M14 melanoma,1.53 µM
same,TGI,M14 melanoma,2.92 µM
same,GI50,MDA-MB-231 breast,1.68 µM
same,TGI,MDA-MB-231 breast,3.1 µM
same,GI50,K-562 leukemia,1.04 µM
same,TGI,K-562 leukemia,3.62 µM
same,GI50,786-0 renal,1.48 µM
same,TGI,786-0 renal,2.84 µM
same,GI50,SK-MEL-5 melanoma,1.37 µM
same,TGI,SK-MEL-5 melanoma,2.66 µM
same,GI50,SK-MEL-28 melanoma,1.47 µM
same,TGI,SK-MEL-28 melanoma,2.8 µM
same,GI50,MCF7 breast,1.47 µM
same,TGI,MCF7 breast,2.99 µM
same,GI50,UO-31 renal,1.22 µM
same,TGI,UO-31 renal,2.53 µM
same,GI50,A498 renal,1.45 µM
same,TGI,A498 renal,3.37 µM
same,GI50,CCRF-CEM leukemia,1.95 µM
same,TGI,CCRF-CEM leukemia,7.66 µM
same,GI50,MDA-MB-468 breast,1.13 µM
same,TGI,MDA-MB-468 breast,2.45 µM
same,GI50,COLO 205 colon,1.15 µM
same,TGI,COLO 205 colon,2.43 µM
same,GI50,IGROV1 ovarian,1.55 µM
same,TGI,IGROV1 ovarian,3.26 µM
same,GI50,PC-3 prostate,1.37 µM
same,TGI,PC-3 prostate,3.27 µM
same,GI50,NCI-H226 lung,1.45 µM
same,TGI,NCI-H226 lung,3.04 µM
same,GI50,SK-MEL-2 melanoma,1.37 µM
same,TGI,SK-MEL-2 melanoma,2.71 µM
same,GI50,U251 CNS,1.44 µM
same,TGI,U251 CNS,2.83 µM
same,GI50,SN12C renal,1.76 µM
same,TGI,SN12C renal,4.13 µM
same,GI50,OVCAR-8 ovarian,1.4 µM
same,TGI,OVCAR-8 ovarian,2.82 µM
same,GI50,LOX IMVI melanoma,1.59 µM
same,TGI,LOX IMVI melanoma,3.01 µM
same,GI50,HCT-116 colon,1.26 µM
same,TGI,HCT-116 colon,2.51 µM
same,GI50,OVCAR-3 ovarian,1.34 µM
same,TGI,OVCAR-3 ovarian,2.98 µM
same,GI50,MDA-MB-435,1.37 µM
same,TGI,MDA-MB-435,2.73 µM
same,GI50,ACHN renal,1.72 µM
same,TGI,ACHN renal,3.81 µM
same,GI50,SF-295 CNS,1.46 µM
same,TGI,SF-295 CNS,2.79 µM
same,GI50,DU-145 prostate,2.48 µM
same,TGI,DU-145 prostate,6.95 µM
same,GI50,SR leukemia,1.46 µM
same,TGI,SR leukemia,3.51 µM
same,GI50,T-47D breast,1.42 µM
same,TGI,T-47D breast,3.66 µM
same,GI50,OVCAR-4 ovarian,1.68 µM
same,TGI,OVCAR-4 ovarian,5.9 µM
same,GI50,TK-10 renal,1.93 µM
same,TGI,TK-10 renal,5.44 µM
same,GI50,CAKI-1 renal,1.36 µM
same,TGI,CAKI-1 renal,2.73 µM
same,GI50,HL-60(TB) leukemia,1.4 µM
same,TGI,HL-60(TB) leukemia,3.98 µM
same,GI50,SK-OV-3 ovarian,1.56 µM
same,TGI,SK-OV-3 ovarian,3 µM
same,GI50,NCI-H522 lung,1.5 µM
same,TGI,NCI-H522 lung,3.09 µM
same,GI50,NCI-H23 lung,1.44 µM
same,TGI,NCI-H23 lung,2.9 µM
same,GI50,BT-549 breast,1.33 µM
same,TGI,BT-549 breast,2.64 µM
same,GI50,MOLT-4 leukemia,1.5 µM
same,TGI,MOLT-4 leukemia,3.64 µM
same,GI50,SF-268 CNS,2.07 µM
same,TGI,SF-268 CNS,6.31 µM
same,GI50,SF-539 CNS,1.7 µM
same,TGI,SF-539 CNS,3.13 µM
same,GI50,UACC-257 melanoma,1.52 µM
same,TGI,UACC-257 melanoma,3.04 µM
same,GI50,RXF 393 renal,1.07 µM
same,TGI,RXF 393 renal,2.31 µM
same,GI50,HOP-92 NSCLC,1.08 µM
same,TGI,HOP-92 NSCLC,2.47 µM
same,GI50,A549 NSCLC,1.76 µM
same,TGI,A549 NSCLC,6.18 µM
same,GI50,KM12 colon,1.78 µM
same,TGI,KM12 colon,3.73 µM
same,GI50,HS 578T breast,1.45 µM
same,TGI,HS 578T breast,3.46 µM
same,GI50,HCC-2998 colon,1.4 µM
same,TGI,HCC-2998 colon,2.7 µM
same,GI50,OVCAR-5 ovarian,1.63 µM
same,TGI,OVCAR-5 ovarian,3.42 µM
same,GI50,RPMI-8226 leukemia,1.4 µM
same,TGI,RPMI-8226 leukemia,4.17 µM
same,GI50,UACC-62 melanoma,1.53 µM
same,TGI,UACC-62 melanoma,2.9 µM
same,GI50,MALME-3M melanoma,1.4 µM
same,TGI,MALME-3M melanoma,2.78 µM
same,GI50,SNB-19 CNS,2.02 µM
same,TGI,SNB-19 CNS,5.56 µM

# Source: PubChem BioAssay (NCI)
